In patent US6534523B1, “Hepatitis C inhibitor tri-peptides” (Boehringer Ingelheim (Canada) Ltd., priority 1998, dated 2003) one finds IC50 data, which are given here for 37 compounds.

Like-named read-outs stand apart in the source and are kept apart here.

The assay has as its target HCV NS3 protease (UniProt P26663). The format is biochemical, HCV genotype 1b. The arrangement: rows headed: IC50 (μM); IC50 (μM). How it is done: Recombinant HCV NS3 Protease/NS4A Cofactor Peptide Radiometric Assay
The enzyme was cloned, expressed and prepared according to the protocol described in Example 36. The enzyme was stored at −80° C., thawed on ice and diluted just prior to use in the assay buffer containing the NS4A cofactor peptide.
The substrate used for the NS3 protease/NS4A cofactor peptide radiometric assay, DDIVPC-SMSYTW, is cleaved between the cysteine and the serine residues by the enzyme. The sequence DDIVPC-SMSYTW corresponds to the NS5A/NS5B natural cleavage site in which the cysteine residue in P2 has been substituted for a proline. […] (molar ratio enzyme:cofactor 1:100) in the absence or presence of inhibitors. The separation of substrate from products is performed by adding avidin-coated agarose beads to the assay mixture followed by filtration. The amount of SMS[^125I-Y]TW product found in the filtrate allows for the calculation of the percentage of substrate conversion and of the percentage of inhibition.
The enzymatic reaction was initiated by the addition of the enzyme/NS4A peptide solution and the assay mixture was incubated for 40 min at 23° C. under gentle agitation. Ten (10) μL of 0.5N NaOH were added and 10 μL 1 M MES, pH 5.8 were added to quench the enzymatic reaction.
A non-linear curve fit with the Hill model was applied to the inhibition-concentration data, and the 50% effective concentration (IC50) was calculated by the use of SAS software (Statistical Software System; SAS Institute, Inc. Cary, N.C.). […]
The NS2-NS5B-3′ non coding region was cloned by RT-PCR into the pCR®3 vector (Invitrogen) using RNA extracted from the serum of an HCV genotype 1b infected individual (provided by Dr. Bernard Willems, Hôpital St-Luc, Montréal, Québec, Canada). The NS3-NS4A DNA region was then subcloned by PCR into the pFastBac™ HTa baculovirus expression vector (Gibco/BRL). The vector sequence includes a region encoding a 28-residue N-terminal sequence which contains a hexahistidine tag. The Bac-to-Bac™ baculovirus expression system (Gibco/BRL) was used to produce the recombinant baculovirus. The full length mature NS3 and NS4A heterodimer protein (His-NS3-NS4AFL) was expressed by infecting 10^6 Sf21 cells/mL with the recombinant baculovirus at a multiplicity of infection of 0.1-0.2 at 27° C. The infected culture was harvested 48 to 64 h later by centrifugation at 4° C. The cell pellet was homogenized in 50 mM NaPO4, pH 7.5, 40% glycerol (w/v), 2 mM β-mercaptoethanol, in presence of a cocktail of protease inhibitors. His-NS3-NS4AFL was then extracted from the cell lysate with 1.5% NP-40, 0.5% Triton X-100, 0.5M NaCl, and a DNase treatment. After ultracentrifugation, the soluble extract was diluted 4-fold and bound on a Pharmacia Hi-Trap Ni-chelating column. […] The His-NS3-NS4AFL was stored at −80° C. in 50 mM sodium phosphate, pH 7.5, 10% (w/v) glycerol, 0.5 M NaCl, 0.25 M imidazole, 0.1% NP-40. It was thawed on ice and diluted just prior to use. The protease activity of His-NS3-NS4AFL was assayed in 50 mM Tris-HCl, pH 8.0, 0.25 M sodium citrate, 0.01% (w/v) n-dodecyl-β-D-maltoside, 1 mM TCEP. Five (5) μM of the internally quenched substrate anthranilyl-DDIVPAbu[C(O)—O]-AMY(3-NO2)TW-OH in presence of various concentrations of inhibitor were incubated with 1.5 nM of His-NS3-NS4AFL for 45 min at 23° C. […] The reaction was terminated with the addition of 1M MES, pH 5.8. Fluorescence of the N-terminal product was monitored on a Perkin-Elmer LS-50B fluorometer equipped with a 96-well plate reader (excitation wavelength: 325 nm; emission wavelength: 423 nm).
The following tables list compounds representative of the invention.

A word on the IC50: it is the midpoint of a concentration-inhibition curve. The low end stands for higher potency, the high end for lower potency.

HCV NS3 protease, sequence (P26663 1027-1206, other chains not shown): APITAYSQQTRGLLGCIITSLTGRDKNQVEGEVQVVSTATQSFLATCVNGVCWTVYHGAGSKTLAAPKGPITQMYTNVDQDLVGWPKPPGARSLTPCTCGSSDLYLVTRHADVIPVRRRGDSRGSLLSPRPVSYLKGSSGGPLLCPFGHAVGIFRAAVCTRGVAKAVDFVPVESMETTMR

For `C=CC1CC1(NC(=O)C1CC(Oc2cc(-c3ccccc3)nc3cc(OC)ccc23)CN1C(=O)C(NC(=O)OC(C)(C)C)C(C)OC)C(=O)O` (stereo not shown) [compound 852], the midpoint of inhibition (Table 8), the IC50, lay at 50 nM. Compound `C=CC1CC1(NC(=O)C1CC(Oc2cc(-c3ccccc3)nc3cc(OC)ccc23)CN1C(=O)C(Nc1cccc(-c2ccccc2)c1)C(C)C)C(=O)O` (stereo not shown) [compound 854] yielded an IC50 (Table 8) of 370 nM. Take `C=CC1CC1(NC(=O)C1CC(Oc2ccnc3ccccc23)CN1C(=O)C(NC(=O)OC(C)(C)C)C(C)(C)SCc1ccc(C)cc1)C(=O)O` (stereo not shown) [compound 508]: for the setting “Table 5”, the 50% inhibitory concentration (IC50) worked out at 3100 nM. With `C=CC1CC1(NC(=O)C1CC(Oc2cc(-c3cnccn3)nc3cc(OC)ccc23)CN1C(=O)C(NC(=O)OC(C)(C)C)C(C)(C)C)C(=O)O` (stereo not shown) [compound 729], the IC50 (Table 7) is 200 nM. For the compound `C=CC1CC1(NC(=O)C1CC(Oc2ccnc3cc(OC)ccc23)CN1C(=O)C(NC(=O)OC(C)(C)C)C(C)(C)C)C(=O)O` (stereo not shown) [compound 604], it took 73 nM to reach half-maximal inhibition (Table 6) (IC50).

As for `C=CC1CC1(NC(=O)C1CC(Oc2cc(-c3ccccc3)nc3cc(OC)ccc23)CN1C(=O)C(NC(=O)NC(C)(C)C(N)=O)C(C)(C)C)C(=O)O` (stereo not shown) [compound 833], the half-inhibitory concentration (IC50) (Table 8) stood at 15 nM.

In the case of `C=CC1CC1(NC(=O)C1CC(Oc2ccnc3ccccc23)CN1C(=O)C(NC(=O)OC(C)(C)C)C(C)OC(C)(C)C)C(=O)O` (stereo not shown) [compound 503], where the note is “Table 5”, it took 790 nM to reach half-maximal inhibition (IC50). Take `C=CC1CC1(NC(=O)C1CC(Oc2cc(OC)nc3ccccc23)CN1C(=O)C(NC(=O)OC(C)(C)C)C(C)(C)C)C(=O)O` (stereo not shown) [compound 623]: the half-maximal inhibitory concentration (IC50) (Table 6) was 200 nM. Where the note is “Table 8”, `C=CC1CC1(NC(=O)C1CC(Oc2cc(-c3ccccc3)nc3cc(OC)ccc23)CN1C(=O)C(NC(=O)NCc1ccccc1)C(C)(C)C)C(=O)O` (stereo not shown) [compound 817] returned an IC50 of 17 nM. As for `C=CC1CC1(NC(=O)C1CC(Oc2cc(-c3ccccc3)nc3cc(OC)ccc23)CN1C(=O)C(NC(=O)OC(C)(C)C)C(C)OC)C(=O)O` (stereo not shown) [compound 851], half-maximal inhibition (Table 8) (IC50) required 120 nM. `C=CC1CC1(NC(=O)C1CC(Oc2cc(-c3ccccc3)nc3cc(OC)ccc23)CN1C(=O)C(NC(=O)OC(C)(C)C)C(C)OC(C)(C)C)C(=O)O` (stereo not shown) [compound 850] returned a half-maximal inhibitory concentration (IC50) (Table 8) of 63 nM. Turning to `C=CC1CC1(NC(=O)C1CC(Oc2cc(-c3ccc(OC)cc3)nc3cc(OC)ccc23)CN1C(=O)C(NC(=O)NC(C)(C)C)C(C)(C)C)C(=O)O` (stereo not shown) [compound 844], for the setting “Table 8”, it took 6 nM to reach half-maximal inhibition (IC50). For the setting “Table 8”, `C=CC1CC1(NC(=O)C1CC(Oc2cc(-c3ccccc3)nc3cc(OC)ccc23)CN1C(=O)C(NC(=O)OC1CCCC1)C(C)(C)C)C(=O)O` (stereo not shown) [compound 869] yielded a half-inhibitory concentration (IC50) of 14 nM.

With `C=C[C@H]1C[C@]1(NC(=O)[C@@H]1CC(Oc2cc(-c3ccccc3)nc3ccc([N+](=O)[O-])cc23)CN1C(=O)[C@@H](NC(=O)OC(C)(C)C)C1CCCCC1)C(=O)O` (stereo partly shown) [compound 307], the IC50 (Table 3) was 270 nM.

Take `C=CC1CC1(NC(=O)C1CC(Oc2cc(Cl)nc3ccccc23)CN1C(=O)C(NC(=O)OC(C)(C)C)C(C)(C)C)C(=O)O` (stereo not shown) [compound 610]: the IC50 (Table 6) amounted to 250 nM. In the case of `C=C[C@H]1C[C@]1(NC(=O)[C@@H]1C[C@@H](OCc2cccc3ccccc23)CN1C(=O)[C@@H](NC(=O)OC(C)(C)C)C1CCCCC1)C(=O)O` [compound 305], where the note is “Table 3”, 3200 nM corresponded to half-maximal inhibition (IC50). In the case of `C=CC1CC1(NC(=O)C1CC(Oc2cc(-c3csc(NC(C)=O)n3)nc3cc(N(CC)CC)ccc23)CN1C(=O)C(NC(=O)OC(C)(C)C)C(C)(C)C)C(=O)O` (stereo not shown) [compound 630], where the note is “Table 6”, half-maximal inhibition (IC50) required 43 nM.

For `C=CC1CC1(NC(=O)C1CC(Oc2cc(-c3ccccc3)nc3cc(OC)ccc23)CN1C(=O)C(Nc1cccc(CCO)c1)C(C)C)C(=O)O` (stereo not shown) [compound 855], the concentration for half-maximal inhibition (IC50) (Table 8) stood at 75 nM.

Take `C=CC1CC1(NC(=O)C1CC(Oc2cc(-c3cnn(C(C)(C)C)c3)nc3cc(OC)ccc23)CN1C(=O)C(NC(=O)OC(C)(C)C)C(C)(C)C)C(=O)O` (stereo not shown) [compound 720]: the IC50 (Table 7) came to 30 nM.

In the case of `C=CC1CC1(NC(=O)C1CC(Oc2cc(-c3ccccc3)nc3cc(OC)ccc23)CN1C(=O)C(NS(=O)(=O)c1ccccc1)C(C)(C)C)C(=O)O` (stereo not shown) [compound 909], the half-maximal inhibitory concentration (IC50) (Table 9) is 36 nM.

The compound `C=CC1CC1(NC(=O)C1CC(Oc2cc(-c3ccncn3)nc3cc(OC)ccc23)CN1C(=O)C(NC(=O)OC(C)(C)C)C(C)(C)C)C(=O)O` (stereo not shown) [compound 725] returned an IC50 (Table 7) of 46 nM.

On to `C=CC1CC1(NC(=O)C1CC(Oc2cc(-c3csc(N)n3)nc3cc(OC)ccc23)CN1C(=O)C(NC(=O)OC(C)(C)C)C(C)(C)C)C(=O)O` (stereo not shown) [compound 709], for which it took 21 nM to reach half-maximal inhibition (Table 7) (IC50).

`C=CC1CC1(NC(=O)C1CC(Oc2cc(N(C)c3ccccc3)nc3cc(OC)ccc23)CN1C(=O)C(NC(=O)OC(C)(C)C)C(C)(C)C)C(=O)O` (stereo not shown) [compound 708] had an IC50 (Table 7) of 150 nM.

As for `C=CC1CC1(NC(=O)C1CC(Oc2cc(-c3ccccc3)nc3cc(OC)ccc23)CN1C(=O)C(Nc1cccc(CO)c1)C(C)C)C(=O)O` (stereo not shown) [compound 838], where the note is “Table 8”, the IC50 was 94 nM. The compound `C=CC1CC1(NC(=O)C1CC(Oc2cc(CN3CCCC3)nc3ccccc23)CN1C(=O)C(NC(=O)OC(C)(C)C)C(C)(C)C)C(=O)O` (stereo not shown) [compound 614] returned a half-inhibitory concentration (IC50) (Table 6) of 2200 nM. On to `C=CC1CC1(NC(=O)C1CC(Oc2ccnc3ccccc23)CN1C(=O)C(NC(=O)OC(C)(C)C)C(C)(C)SCNC(C)=O)C(=O)O` (stereo not shown) [compound 507], for which the IC50 (Table 5) is 980 nM. Take `C=CC1C[C@]1(NC(=O)[C@@H]1C[C@@H](Oc2cc(N(C)C)nc3cc(OC)ccc23)CN1C(=O)[C@@H](NC(=O)OC(C)(C)C)C(C)(C)C)C(=O)O` (stereo partly shown) [compound 712]: the IC50 (Table 7) is 100 nM.

`C=CC1CC1(NC(=O)C1CC(Oc2cc(-c3ccccc3)nc3cc(OC)ccc23)CN1C(=O)C(Nc1cccc(C)c1)C(C)C)C(=O)O` (stereo not shown) [compound 834] yielded an IC50 (Table 8) of 74 nM. `C=CC1CC1(NC(=O)C1CC(Oc2cc(-c3cccc(Cl)c3)nc3cc(OC)ccc23)CN1C(=O)C(NC(=O)OC(C)(C)C)C(C)(C)C)C(=O)O` (stereo not shown) [compound 815] registered a 50% inhibitory concentration (IC50) (Table 8) of 160 nM.

The compound `C=CC1CC1(NC(=O)C1CC(Oc2cc(OCC(C)C)nc3cc(OC)ccc23)CN1C(=O)C(NC(=O)OC(C)(C)C)C(C)(C)C)C(=O)O` (stereo not shown) [compound 735] yielded a 50% inhibitory concentration (IC50) (Table 7) of 58 nM. `C=CC1CC1(NC(=O)C1CC(Oc2ccnc3ccccc23)CN1C(=O)C(NC(=O)OC(C)(C)C)C(C)OCc1ccccc1)C(=O)O` (stereo not shown) [compound 506] gave an IC50 (Table 5) of 1300 nM. Under “Table 8”, `C=CC1CC1(NC(=O)C1CC(Oc2cc(-c3ccccc3)nc3cc(OC)ccc23)CN1C(=O)C(NC(=O)C(O)C1CCCCC1)C(C)(C)C)C(=O)O` (stereo not shown) [compound 802] had a 50% inhibitory concentration (IC50) of 24 nM. `C=CC1CC1(NC(=O)C1CC(Oc2cc(-c3ccccc3)nc3cc(OC)ccc23)CN1C(=O)C(NC(=O)OC(C)C(C)(C)C)C(C)(C)C)C(=O)O` (stereo not shown) [compound 910] registered an IC50 (Table 9) of 56 nM. With `C=CC1CC1(NC(=O)C1CC(Oc2cc(-c3ccccc3)nc3cc(OC)ccc23)CN1C(=O)C(NCc1ccccc1)C(C)C)C(=O)O` (stereo not shown) [compound 826], under “Table 8”, the IC50 came out at 780 nM.

Compound `C=CC1CC1(NC(=O)C1CC(Oc2cc(-c3ccccc3)nc3cc(OC)ccc23)CN1C(=O)C(NC(=O)OC(C)(C)C)C1CCCCC1)C(=O)O` (stereo not shown) [compound 847] registered a half-maximal inhibitory concentration (IC50) (Table 8) of 37 nM.

`C=CC1CC1(NC(=O)C1CC(Oc2cc(-c3ccccc3)nc3c(OC)c(OC)ccc23)CN1C(=O)C(NC(=O)OC(C)(C)C)C(C)(C)C)C(=O)O` (stereo not shown) [compound 602] gave a half-inhibitory concentration (IC50) (Table 6) of 41 nM. Consider `C=CC1CC1(NC(=O)C1CC(Oc2cc(-c3cnn(C)c3)nc3cc(OC)ccc23)CN1C(=O)C(NC(=O)OC(C)(C)C)C(C)(C)C)C(=O)O` (stereo not shown) [compound 701], for which the half-maximal inhibitory concentration (IC50) (Table 7) was 28 nM.
